Experimental data as given in ChEMBL document CHEMBL1201862, “PubChem BioAssay data set” (2004).
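Compound exposure: 48 hours, 5 concentrations, 96-well plates. Abbreviation: GI50, concentration required for 50% inhibition of growth.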 Activity calls are given as the source filed them. Rule as the data show it: active = GI50 up to about 1.1 µM and inactive = higher.

Experiments:
Assay in all cases: NCI tumour cell line growth inhibition, 48 h
SNB-75 = test system: SNB-75
CAKI-1 = test system: CAKI-1
SF-295 = test system: SF-295
PC-3 = test system: PC-3
TK-10 = test system: TK-10
SW-620 = test system: SW-620
NCI-H460 = test system: NCI-H460
SNB-19 = test system: SNB-19
EKVX = test system: EKVX
SN12C = test system: SN12C
U-251 = test system: U-251
HCC 2998 = test system: HCC 2998
SK-MEL-28 = test system: SK-MEL-28
HL-60 = test system: HL-60
UACC-62 = test system: UACC-62
NCI/ADR-RES = test system: NCI/ADR-RES
SF-268 = test system: SF-268
SR = test system: SR
A549 = test system: A549
CCRF-CEM = test system: CCRF-CEM

| Compound | GI50 (SNB-75) | GI50 (CAKI-1) | GI50 (SF-295) | GI50 (PC-3) | GI50 (TK-10) | GI50 (SW-620) | GI50 (NCI-H460) | GI50 (SNB-19) | GI50 (EKVX) | GI50 (SN12C) | GI50 (U-251) | GI50 (HCC 2998) | GI50 (SK-MEL-28) | GI50 (HL-60) | GI50 (UACC-62) | GI50 (NCI/ADR-RES) | GI50 (SF-268) | GI50 (SR) | GI50 (A549) | GI50 (CCRF-CEM) |
| --- | --- | --- | --- | --- | --- | --- | --- | --- | --- | --- | --- | --- | --- | --- | --- | --- | --- | --- | --- | --- |
| COCCc1c(C)c(C#N)c2n(C)c3ccccc3n2c1=O | > 10 µM (inactive) | > 10 µM (inactive) | > 10 µM (inactive) | > 10 µM (inactive) | > 10 µM (inactive) | > 10 µM (inactive) | > 10 µM (inactive) | > 10 µM (inactive) | > 10 µM (inactive) | > 10 µM (inactive) | > 10 µM (inactive) | > 10 µM (inactive) | > 10 µM (inactive) | 0.00575 µM (active) | > 10 µM (inactive) | > 10 µM (inactive) | > 10 µM (inactive) | > 10 µM (inactive) | > 10 µM (inactive) |  |
| C1=C\SS/C=C\SS/C=C\SS/C=C\SS/1 |  | 30.3 µM (inactive) | 45.3 µM (inactive) | > 100 µM (inactive) | > 100 µM (inactive) | 51.4 µM (inactive) | 22.9 µM (inactive) | 67.5 µM (inactive) | > 100 µM (inactive) | > 100 µM (inactive) | 81.8 µM (inactive) | > 100 µM (inactive) | > 100 µM (inactive) | 24.9 µM (inactive) | > 100 µM (inactive) | > 100 µM (inactive) | 70.8 µM (inactive) | 54.1 µM (inactive) | > 100 µM (inactive) | 10.2 µM (inactive) |
| COc1ccc(/C=C2\C[C@H]3[C@@H]4CCC5=CC(=O)CC[C@]5(C)[C@H]4CC[C@]3(C)C2=O)cc1OC | > 100 µM (inactive) | 6.97 µM (inactive) | 0.0635 µM (active) | 5.51 µM (inactive) |  | 21.1 µM (inactive) | 6.93 µM (inactive) | 44.6 µM (inactive) | 8.41 µM (inactive) | 14.4 µM (inactive) |  | 21.8 µM (inactive) | 40.7 µM (inactive) | 1.37 µM (inactive) | 6.24 µM (inactive) | 6.27 µM (inactive) | > 100 µM (inactive) | 2.81 µM (inactive) | 5.58 µM (inactive) | 2.19 µM (inactive) |
| [O-][S+](Nc1ccccc1)c1cccc(Cl)c1 (centres undefined) | 76.6 µM (inactive) | 91 µM (inactive) | 65.3 µM (inactive) | 65.9 µM (inactive) | > 100 µM (inactive) | > 100 µM (inactive) | 42.5 µM (inactive) | > 100 µM (inactive) | 27 µM (inactive) | > 100 µM (inactive) | 53.2 µM (inactive) | 11.3 µM (inactive) | 68.5 µM (inactive) | 48.6 µM (inactive) |  | 34.6 µM (inactive) | 44.1 µM (inactive) | 25.5 µM (inactive) | 39.7 µM (inactive) | 50.4 µM (inactive) |
| CC1CNC(NS(=O)(=O)c2cc(C(=O)Nc3ccc(Cl)cc3)c(Cl)cc2S)=NN1 (centres undefined) |  | 51.5 µM (inactive) | 35.8 µM (inactive) | 30 µM (inactive) | 81.7 µM (inactive) | 34.1 µM (inactive) | 38.5 µM (inactive) | 35.1 µM (inactive) | 63 µM (inactive) | 38.8 µM (inactive) | 37.2 µM (inactive) | 19.1 µM (inactive) | 22.3 µM (inactive) | > 100 µM (inactive) | 29.2 µM (inactive) | 36.6 µM (inactive) | 11.5 µM (inactive) | 27.2 µM (inactive) | 28.6 µM (inactive) | 34.9 µM (inactive) |
| COc1cc(C2CC(C)(N3CCOCC3)Oc3cc4c(cc32)OCO4)cc(OC)c1OC (centres undefined) |  | 0.177 µM (active) | 0.104 µM (active) | 0.116 µM (active) |  | 0.136 µM (active) | 0.156 µM (active) | 0.589 µM (active) |  | 0.189 µM (active) | 0.0577 µM (active) | 0.427 µM (active) |  | 0.0228 µM (active) | 0.139 µM (active) | 0.2 µM (active) | 4.83 µM (inactive) | 0.206 µM (active) | 2.14 µM (inactive) | 0.0352 µM (active) |
| O=C(NC1(C(=O)NNc2nnc(-c3ccccc3)c(-c3ccccc3)n2)C(c2ccccc2)C(c2ccccc2)=NN1c1ccccc1)c1ccccc1 (centres undefined) | 55.8 µM (inactive) | > 100 µM (inactive) | > 100 µM (inactive) | > 100 µM (inactive) | > 100 µM (inactive) | > 100 µM (inactive) | > 100 µM (inactive) | > 100 µM (inactive) | > 100 µM (inactive) |  | > 100 µM (inactive) | 63.4 µM (inactive) |  | 46.8 µM (inactive) | > 100 µM (inactive) | > 100 µM (inactive) | > 100 µM (inactive) | > 100 µM (inactive) | > 100 µM (inactive) |  |
| O=C1NC(N2CCCC(CO)C2)=N/C1=C\c1ccc(Cl)cc1 (centres undefined) | 51.1 µM (inactive) | > 100 µM (inactive) | > 100 µM (inactive) | > 100 µM (inactive) | > 100 µM (inactive) | > 100 µM (inactive) |  | > 100 µM (inactive) | 49.1 µM (inactive) | > 100 µM (inactive) | > 100 µM (inactive) | 35.9 µM (inactive) | > 100 µM (inactive) | > 100 µM (inactive) | > 100 µM (inactive) | > 100 µM (inactive) | > 100 µM (inactive) | > 100 µM (inactive) | > 100 µM (inactive) | > 100 µM (inactive) |
| O=C(NC(CO)Cc1ccc(Oc2cc(CC(CO)NC(=O)OCc3ccccc3)ccc2OC(=O)OCc2ccccc2)cc1)OCc1ccccc1 (centres undefined) | 16.5 µM (inactive) | 26 µM (inactive) | 15.9 µM (inactive) | 11.4 µM (inactive) | 20.7 µM (inactive) | 26.3 µM (inactive) | 17.8 µM (inactive) | 22.4 µM (inactive) | 14.5 µM (inactive) | 19.1 µM (inactive) |  | 16.1 µM (inactive) | 17.9 µM (inactive) | 9.82 µM (inactive) |  | 28.4 µM (inactive) | 23.5 µM (inactive) | 4.19 µM (inactive) | 11.6 µM (inactive) | 4.28 µM (inactive) |
| CN(C)c1ccc(-c2c(C#N)c(S)n(NS(=O)(=O)c3ccccc3)c(=O)c2C#N)cc1 | 25.4 µM (inactive) | 23.8 µM (inactive) | 31 µM (inactive) | 21.1 µM (inactive) | 19 µM (inactive) | 38.9 µM (inactive) |  | 48.1 µM (inactive) | 32.6 µM (inactive) | 20.2 µM (inactive) | 24.1 µM (inactive) | 70.8 µM (inactive) | 36.1 µM (inactive) | 15.7 µM (inactive) | 20.5 µM (inactive) | 19.3 µM (inactive) |  | 10 µM (inactive) | 37.9 µM (inactive) | 5.93 µM (inactive) |
| COC(CC1(/C=C/O[Si](C(C)C)(C(C)C)C(C)C)C(=O)N(C)c2ccccc21)OC (centres undefined) | > 100 µM (inactive) | > 100 µM (inactive) | 28.6 µM (inactive) | 49.3 µM (inactive) |  | > 100 µM (inactive) | 45.9 µM (inactive) | > 100 µM (inactive) | 46 µM (inactive) | 78.9 µM (inactive) | 51.9 µM (inactive) | 64 µM (inactive) | > 100 µM (inactive) | 51.8 µM (inactive) | > 100 µM (inactive) | 22.9 µM (inactive) | 36.6 µM (inactive) | 31.6 µM (inactive) | 45.2 µM (inactive) | 64.7 µM (inactive) |
| O=C(O)c1cc2ccccc2c(/N=N\c2cc(C(F)(F)F)ccc2Cl)c1O | 0.0169 µM (active) | 94.8 µM (inactive) | 47.6 µM (inactive) | 48.6 µM (inactive) | > 100 µM (inactive) | > 100 µM (inactive) | 38.5 µM (inactive) | 1.17 µM (inactive) | 70 µM (inactive) | 44.9 µM (inactive) | 27.5 µM (inactive) | > 100 µM (inactive) | 83 µM (inactive) | 21.8 µM (inactive) |  | 76.2 µM (inactive) | > 100 µM (inactive) | 24.8 µM (inactive) | 27.9 µM (inactive) | 33.6 µM (inactive) |
| O=C1NC(c2ccc3ccccc3c2)Nc2ccccc21 (centres undefined) | 75.7 µM (inactive) | 59.7 µM (inactive) | 35.3 µM (inactive) | 27.9 µM (inactive) | > 100 µM (inactive) | 43.8 µM (inactive) | 25.3 µM (inactive) | 51.8 µM (inactive) | 45.6 µM (inactive) |  | > 100 µM (inactive) | 51.9 µM (inactive) | > 100 µM (inactive) | 15.2 µM (inactive) | 21.9 µM (inactive) | 62.4 µM (inactive) | > 100 µM (inactive) | 5.83 µM (inactive) |  | 30.6 µM (inactive) |
| Cc1ccc(C(=O)Nc2ccc(CP(=O)(O)O)cc2CP(=O)(O)O)cc1N | > 100 µM (inactive) | > 100 µM (inactive) | > 100 µM (inactive) | > 100 µM (inactive) | > 100 µM (inactive) | > 100 µM (inactive) |  | > 100 µM (inactive) | > 100 µM (inactive) | > 100 µM (inactive) | > 100 µM (inactive) | > 100 µM (inactive) | > 100 µM (inactive) | > 100 µM (inactive) | > 100 µM (inactive) | > 100 µM (inactive) | > 100 µM (inactive) | > 100 µM (inactive) | > 100 µM (inactive) | > 100 µM (inactive) |
| Cn1ccc(C(=O)NCCCCCNC(=O)c2ccn(C)c(=O)c2O)c(O)c1=O |  | > 100 µM (inactive) |  | > 100 µM (inactive) | > 100 µM (inactive) | > 100 µM (inactive) | > 100 µM (inactive) | > 100 µM (inactive) |  | > 100 µM (inactive) | > 100 µM (inactive) | > 100 µM (inactive) | > 100 µM (inactive) | > 100 µM (inactive) | > 100 µM (inactive) | > 100 µM (inactive) | > 100 µM (inactive) | > 100 µM (inactive) | > 100 µM (inactive) | > 100 µM (inactive) |
